One compound from US8884026B2, “Process for preparing rufinamide intermediate” (Laboratorios Lesvi, S.L., priority 2010, dated 2014) can be followed below.

A short description of series [1]: Thermal stability experiments under vacuum, solid phase by PXRD. It is filed as physicochemical. Conditions: 40° C., 1 mbar, different periods of time. On the procedure:
Further advantages of polymorphic form R-5 arose from the significant good thermal stability that has shown over time. […] Thermal stability experiments were performed in a Binder Vacuum oven VD53 using the following methodology. Samples of from R-5 of Rufinamide were kept under vacuum, at 40° C. for different periods of times (at 1 mbar), see table 3 below. There were no significant differences in the PXRD patterns of the solids obtained after the thermal treatment.

Series [2] can be described thus: Grinding experiments in a ball mill, solid phase by PXRD. It is filed as physicochemical. Conditions: with solvent or without solvent. As for the experimental part:
Grinding experiments were performed in a Retsch MM400 Ball Mill using the following methodology: samples of 30 mg of phase R-5 of Rufinamide were grinded at a frequency of 20 s^−1 for 15 min, with a drop of solvent and without solvent.

On to `NC(=O)c1cn(Cc2c(F)cccc2F)nn1` [R-5, 1-(2,6-difluorobenzyl)-1H-1,2,3-triazole-4-carboxamide], for which the “Change of polymorphic form under accelerated degradation (thermal stability)” value in series [1] is given as “No changes in polymorphic form”. Also, the “Change of polymorphic form by grinding” value in series [2] was “does not change”.
